The test system of series [1] is brine shrimp (Artemia salina). Put plainly: Brine shrimp toxicity of Nisin formulations (Example 4). The format is in vivo. The conditions noted are these: Nisin in citric acid buffer solution, reduced pH; data not shown. The protocol: This Example describes the efficacy of various Nisins: Nisin Z, Nisin A, and ImmuCell Nisin A. This experiment assessed the safety and antimicrobial efficacy of various Nisin formulations in treating Vibrio parahaemolyticus infections, a common pathogen in aquaculture environments. Brine shrimp (Artemia salina) were utilized as a model organism to simulate potential impacts on Pacific whiteleg shrimp (Penaeus vannamei).
Nisin variants (Nisin A, Nisin Z, and ImmuCell Nisin A) were dissolved in either citric acid buffer (CAB, pH 3.4) for Nisin A or dH2O for Nisin Z to make a stock solution of 4.86 mg/mL. Serial dilutions were performed to achieve the different concentrations (4.86 mg/mL to 0.005 mg/mL) for the experiments.
Artemia salina eggs were hatched in artificial seawater (Instant Ocean) under controlled conditions. Newly hatched brine shrimp were then exposed to varying concentrations of each Nisin solution in experimental tanks. A separate set of tanks was used for each type of Nisin formulation.
Control tanks (treated with either CAB or saline water) were prepared to observe the natural behavior and survival rate of Artemia salina without Nisin exposure.
Brine shrimp were divided into different tanks for exposure to varying concentrations (2.43 mg/mL, 0.608 mg/mL, 0.152 mg/mL, and 0.038 mg/mL) of Nisin A, Nisin Z, and ImmuCell Nisin A.
Mortality and behavior of the brine shrimp were recorded at 24 and 48 hours post-exposure. For the antimicrobial tests, the diameter of inhibition zones on agar plates containing the laboratory control strains were measured and recorded.

The next series relates to pathogenic Vibrio. The experiment in a line: Minimum inhibitory concentration, all Vibrio species. The class given is cell-based. The conditions noted are these: all species of Vibrio. The procedure: (§1) This Example describes the materials and methods, and results of a serial dilution experiment to determine the Minimum Inhibitory Concentration (MIC) of Nisin in reducing a concentration of pathogenic Vibrio.
(§2) On the day before the experiment, Vibrio stock were prepared by sterilizing an inoculation loop, cooling the product, and extracting cells. Such extract was incubated at 37° C. for 16 to 20 hours. The density of cells was normalized to a cell density of approximately 10^7 to 10^8 CFU/mL and 100 uL lawns were prepared at a cell density of about 10^6 to 10^7 CFU using sterile glass beads. Four lawns were made so that each Nisin dilution could be tested on two identical plates.
(§3) 5 μL of two-fold dilutions (See Table 1, below) of Nisin (Immucell; 99% pure), or shrimp feed (without Nisin), citric acid, or DH20 negative controls, respectively, were spotted on the plates, which were incubated at 37° C. for 16 to 20 hours. The minimum inhibitory concentration was determined. In particular, plates were characterized based upon the presence (0) or absence (1) of Vibrio growth.

A further series deals with Vibrio cholerae. Put plainly: Minimum inhibitory concentration by serial two-fold dilution spotted on Vibrio lawns. The class given is cell-based. The conditions noted are these: individual V. cholerae lines; 37° C., 16 to 20 hours. The protocol: as §1, §2, §3
In the next series the test system is Vibrio alginolyticus. The description is as above. The class given is cell-based. As to conditions: individual V. alginolyticus lines; 37° C., 16 to 20 hours. The procedure:
as §1, §2, §3

The next series has as its system Vibrio parahaemolyticus. The series is described as above. The conditions noted are these: individual V. parahaemolyticus lines; 37° C., 16 to 20 hours. The format is cell-based. The protocol:
as §1, §2, §3

These results are taken from US20260293937A1, “SHRIMP FEED AND METHODS OF USE THEREOF” (Organicin Scientific, Inc., priority 2023, published 2026).

Where “and” joins values, the source holds several entries; their conditions need not be identical. Equal entries are not always repeated. No end group written: not given here.

Consider “Nisin: Nisin (Immucell; 99% pure) in Example 1; bacteriocin Nisin in shrimp feed at 0.84, 8.4 and 84 mg/g in Example 2 (ITSISLCTPGCKTGALMGCNMKTATCHCSIHVSK; cysteine pairing not given here; also: lantibiotic, modifications not placed; UniProt P13068 24-57, looked up)”, for which, in series [1], the “cause of mortality in toxicity trials” value was “mortality that is not related to the peptide Nisin itself”. In the series with pathogenic Vibrio, the “MIC compared with negative control” value is recorded as “significantly smaller MIC than the negative control”. The MIC against Vibrio cholerae is 1,057.5 ug/mL and 8.3 ug/mL and 2,115.0 ug/mL and 132.2 ug/mL and 1.06 wt/v % and 0.01 wt/v % and 2.12 wt/v % and 0.13 wt/v %; in the series on Vibrio alginolyticus, 8.3 ug/mL and 66.1 ug/mL and 2,115.0 ug/mL and 0.01 wt/v % and 0.07 wt/v % and 2.12 wt/v %; against Vibrio parahaemolyticus, 1,057.5 ug/mL and 33.1 ug/mL and 66.1 ug/mL and 528.8 ug/mL and 8.3 ug/mL and 1.06 wt/v % and 0.03 wt/v % and 0.07 wt/v % and 0.53 wt/v % and 0.01 wt/v %.
